Reference: the supplement of paper PMC10307832

Columns and labels:
Test in all cases: relative viability (nuclei count vs DMSO), 5 days (fraction); higher = more cells survive
[1] = tested on: NCI-H1734
In short: (§1)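 Values are medians from duplicate plates. Each reflects relative viability, defined as the nuclei count of treated wells over that of vehicle wells. Lung cancer cell lines in 1536-well plates were pin-tool dosed one day after seeding with one drug alone or with a fixed anchor-drug dose plus five library-drug doses (not always all listed) in √10 steps, then fixed, stained and imaged at 4× after 5 days.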

[2] = tested on: NCI-H1793
In short: as §1

[3] = tested on: NCI-H1975
In short: as §1

[4] = tested on: NCI-H2023
In short: as §1

[5] = tested on: NCI-H2085
In short: as §1

[6] = tested on: NCI-H2342
In short: as §1

[7] = tested on: NCI-H358
In short: as §1

[8] = tested on: NCI-H441
In short: as §1

[9] = tested on: NCI-H460
In short: as §1

[10] = tested on: NCI-H838
In short: as §1

[11] = tested on: SK-LU-1
In short: as §1

Cc1sc2c(c1C)C(c1ccc(Cl)cc1)=N[C@@H](CC(=O)OC(C)(C)C)c1nnc(C)n1-2 [JQ1] + Cc1nc(Nc2ncc(C(=O)Nc3c(C)cccc3Cl)s2)cc(N2CCN(CCO)CC2)n1 [Dasatinib] (partner 0.075 µM)
relative viability ([1]; first compound 0.04 µM): 0.55 | relative viability ([1]; first compound 0.1265 µM): 0.444 | relative viability ([1]; first compound 0.4 µM): 0.457 | relative viability ([1]; first compound 1.265 µM): 0.454 | relative viability ([1]; first compound 4 µM): 0.382 | relative viability ([2]; first compound 0.04 µM): 0.312 | relative viability ([2]; first compound 0.1265 µM): 0.345 | relative viability ([2]; first compound 0.4 µM): 0.435 | relative viability ([2]; first compound 1.265 µM): 0.385 | relative viability ([2]; first compound 4 µM): 0.418 | relative viability ([3]; first compound 0.04 µM): 0.414 | relative viability ([3]; first compound 0.1265 µM): 0.316 | relative viability ([3]; first compound 0.4 µM): 0.305 | relative viability ([3]; first compound 1.265 µM): 0.227 | relative viability ([3]; first compound 4 µM): 0.241 | relative viability ([4]; first compound 0.04 µM): 0.5 | relative viability ([4]; first compound 0.1265 µM): 0.339 | relative viability ([4]; first compound 0.4 µM): 0.272 | relative viability ([4]; first compound 1.265 µM): 0.178 | relative viability ([4]; first compound 4 µM): 0.15 | relative viability ([5]; first compound 0.04 µM): 0.257 | relative viability ([5]; first compound 0.1265 µM): 0.275 | relative viability ([5]; first compound 0.4 µM): 0.189 | relative viability ([5]; first compound 1.265 µM): 0.223 | relative viability ([5]; first compound 4 µM): 0.176 | relative viability ([6]; first compound 0.04 µM): 0.315 | relative viability ([6]; first compound 0.1265 µM): 0.304 | relative viability ([6]; first compound 0.4 µM): 0.328 | relative viability ([6]; first compound 1.265 µM): 0.286 | relative viability ([6]; first compound 4 µM): 0.299 | relative viability ([7]; first compound 0.04 µM): 0.182 | relative viability ([7]; first compound 0.1265 µM): 0.262 | relative viability ([7]; first compound 0.4 µM): 0.279 | relative viability ([7]; first compound 1.265 µM): 0.183 | relative viability ([7]; first compound 4 µM): 0.209 | relative viability ([8]; first compound 0.04 µM): 0.558 | relative viability ([8]; first compound 0.1265 µM): 0.572 | relative viability ([8]; first compound 0.4 µM): 0.634 | relative viability ([8]; first compound 1.265 µM): 0.273 | relative viability ([8]; first compound 4 µM): 0.209 | relative viability ([9]; first compound 0.04 µM): 0.5 | relative viability ([9]; first compound 0.1265 µM): 0.221 | relative viability ([9]; first compound 0.4 µM): 0.201 | relative viability ([9]; first compound 1.265 µM): 0.171 | relative viability ([9]; first compound 4 µM): 0.075 | relative viability ([10]; first compound 0.04 µM): 0.294 | relative viability ([10]; first compound 0.1265 µM): 0.217 | relative viability ([10]; first compound 0.4 µM): 0.264 | relative viability ([10]; first compound 1.265 µM): 0.229 | relative viability ([10]; first compound 4 µM): 0.201 | relative viability ([11]; first compound 0.04 µM): 0.185 | relative viability ([11]; first compound 0.1265 µM): 0.18 | relative viability ([11]; first compound 0.4 µM): 0.182 | relative viability ([11]; first compound 1.265 µM): 0.124 | relative viability ([11]; first compound 4 µM): 0.11
